Laboratory results published in article PMC9668928, “Zandelisib (ME-401) in Japanese patients with relapsed or refractory indolent non-Hodgkin’s lymphoma: an open-label, multicenter, dose-escalation phase 1 study” (International Journal of Hematology, 2022).
“Also recorded” adds a separate entry of the source.

Test system: Japanese patients with R/R iNHL
Assay: Phase 1 dose-escalation study: safety and tolerability (TEAEs, DLTs)
Assay type: in vivo
Description: Japanese patients aged ≥ 20 years with R/R iNHL histologically confirmed as FL, nodal MZL, extra-nodal MZL of mucosa-associated lymphoid tissue, small lymphocytic lymphoma, lymphoplasmacytic lymphoma, Waldenström’s macroglobulinemia, or equivalent, according to World Health Organization classification, were eligible for this study. Other key eligibility criteria included being PI3K inhibitor therapy-naïve and an Eastern Cooperative Oncology Group performance status of 0 or 1. Further details of inclusion and exclusion criteria are provided in Supplementary Table 1.
This was a multicenter, open-label, dose-escalation, phase 1 study in Japan. All patients received oral zandelisib once daily at the same time each day, at least 1 h before or 2 h after a meal (CS: continuous schedule). Each treatment cycle was 28 days. Definitions of the DLTs described in this study can be found in Supplementary Table 2. The observation period for DLTs was from day 1 of Cycle 1 to day 1 of Cycle 2. Zandelisib was administered until disease progression or unacceptable toxicity. In the event of an AE, patients could be switched to IDT. In the case of disease progression while receiving IDT, patients could be switched back to CS per the investigator’s discretion.
A starting dose of 45 mg was set for investigating patient safety. This study adopted a standard 3 + 3 design. […] If DLTs occurred in 2 or more patients, the study was planned to be suspended pending a safety evaluation. If a DLT occurred in 1 patient, 3 further patients were added to cohort 1. If DLTs occurred in 0/3 or 1/6 patients in cohort 1, dosing in cohort 2 commenced (n = 6; 60 mg/day). If the incidence of DLTs in cohort 2 was ≤ 1/6, the maximum tolerated dose was not determined, and the dose in cohort 2 was to be selected as the recommended Japanese phase 2 dose.
The primary endpoint was the safety [number of patients with treatment-emergent adverse events (TEAEs), based on Common Terminology Criteria for Adverse Events version 5.0] and tolerability (including laboratory values, vital signs, and electrocardiogram performance) of zandelisib in Japanese patients. Hepatobiliary disorder, aspartate/alanine (AST/ALT) increased, diarrhea/colitis, organizing pneumonia, stomatitis, or rash were defined as irAEs in this manuscript. Secondary endpoints included PK (plasma concentrations and PK parameters) and the efficacy of zandelisib. […] The PK parameters for Cycle 1 day 1 and Cycle 2 day 1 were calculated for each patient by non-compartmental analysis. PK parameters included maximum plasma drug concentration (Cmax), area under the plasma concentration–time curve (AUC) from time zero to the last measurable point (AUC0–t), the AUC from time zero to infinity (AUC0-inf), and terminal half-life (t1/2).

CN1CCC(c2ccccc2CC(C)(C)Nc2nc(N3CCOCC3)nc(-n3c(C(F)F)nc4ccccc43)n2)CC1 [zandelisib]
TEAE Infections and infestations (SOC), All grades (60 mg, n = 6): 4 (66.7) n (%)
TEAE Infections and infestations (SOC), Grade ≥ 3 (60 mg, n = 6): 0 n (%)
TEAE Infusion site extravasation, All grades (60 mg, n = 6): 0 n (%)
TEAE Infusion site extravasation, Grade ≥ 3 (60 mg, n = 6): 0 n (%)
TEAE Insomnia, All grades (60 mg, n = 6): 0 n (%)
TEAE Insomnia, Grade ≥ 3 (60 mg, n = 6): 0 n (%)
TEAE Investigations (SOC), All grades (60 mg, n = 6): 6 (100.0) n (%)
TEAE Investigations (SOC), Grade ≥ 3 (60 mg, n = 6): 4 (66.7) n (%)
TEAE Joint effusion, All grades (60 mg, n = 6): 0 n (%)
TEAE Joint effusion, Grade ≥ 3 (60 mg, n = 6): 0 n (%)
TEAE Lymphocyte count decreased, All grades (60 mg, n = 6): 1 (16.7) n (%)
TEAE Lymphocyte count decreased, Grade ≥ 3 (60 mg, n = 6): 0 n (%)
TEAE Metabolism and nutrition disorders (SOC), All grades (60 mg, n = 6): 0 n (%)
TEAE Metabolism and nutrition disorders (SOC), Grade ≥ 3 (60 mg, n = 6): 0 n (%)
TEAE Muscle spasms, All grades (60 mg, n = 6): 0 n (%)
TEAE Muscle spasms, Grade ≥ 3 (60 mg, n = 6): 0 n (%)
TEAE Musculoskeletal and connective tissue disorders (SOC), All grades (60 mg, n = 6): 2 (33.3) n (%)
TEAE Musculoskeletal and connective tissue disorders (SOC), Grade ≥ 3 (60 mg, n = 6): 0 n (%)
TEAE Nasopharyngitis, All grades (60 mg, n = 6): 3 (50.0) n (%)
TEAE Nasopharyngitis, Grade ≥ 3 (60 mg, n = 6): 0 n (%)
TEAE Nausea, All grades (60 mg, n = 6): 2 (33.3) n (%)
TEAE Nausea, Grade ≥ 3 (60 mg, n = 6): 0 n (%)
TEAE Nervous system disorders (SOC), All grades (60 mg, n = 6): 0 n (%)
TEAE Nervous system disorders (SOC), Grade ≥ 3 (60 mg, n = 6): 0 n (%)
TEAE Neutrophil count decreased, All grades (60 mg, n = 6): 6 (100.0) n (%)
TEAE Neutrophil count decreased, Grade ≥ 3 (60 mg, n = 6): 4 (66.7) n (%)
TEAE Oral herpes, All grades (60 mg, n = 6): 0 n (%)
TEAE Oral herpes, Grade ≥ 3 (60 mg, n = 6): 0 n (%)
TEAE Organizing pneumonia, All grades (60 mg, n = 6): 0 n (%)
TEAE Organizing pneumonia, Grade ≥ 3 (60 mg, n = 6): 0 n (%)
TEAE Oropharyngeal pain, All grades (60 mg, n = 6): 2 (33.3) n (%)
TEAE Oropharyngeal pain, Grade ≥ 3 (60 mg, n = 6): 0 n (%)
TEAE Pancreatitis, All grades (60 mg, n = 6): 0 n (%)
TEAE Pancreatitis, Grade ≥ 3 (60 mg, n = 6): 0 n (%)
TEAE Pharyngeal paresthesia, All grades (60 mg, n = 6): 1 (16.7) n (%)
TEAE Pharyngeal paresthesia, Grade ≥ 3 (60 mg, n = 6): 0 n (%)
TEAE Pruritus, All grades (60 mg, n = 6): 1 (16.7) n (%)
TEAE Pruritus, Grade ≥ 3 (60 mg, n = 6): 0 n (%)
TEAE Psychiatric disorders (SOC), All grades (60 mg, n = 6): 0 n (%)
TEAE Psychiatric disorders (SOC), Grade ≥ 3 (60 mg, n = 6): 0 n (%)
TEAE Rash maculopapular, All grades (60 mg, n = 6): 4 (66.7) n (%)
TEAE Rash maculopapular, Grade ≥ 3 (60 mg, n = 6): 1 (16.7) n (%)
TEAE Rash, All grades (60 mg, n = 6): 3 (50.0) n (%)
TEAE Rash, Grade ≥ 3 (60 mg, n = 6): 0 n (%)
TEAE Renal and urinary disorders (SOC), All grades (60 mg, n = 6): 0 n (%)
TEAE Renal and urinary disorders (SOC), Grade ≥ 3 (60 mg, n = 6): 0 n (%)
TEAE Renal impairment, All grades (60 mg, n = 6): 0 n (%)
TEAE Renal impairment, Grade ≥ 3 (60 mg, n = 6): 0 n (%)
TEAE Respiratory, thoracic, and mediastinal disorders (SOC), All grades (60 mg, n = 6): 3 (50.0) n (%)
TEAE Respiratory, thoracic, and mediastinal disorders (SOC), Grade ≥ 3 (60 mg, n = 6): 0 n (%)
TEAE Skin and subcutaneous tissue disorders (SOC), All grades (60 mg, n = 6): 6 (100.0) n (%)
TEAE Skin and subcutaneous tissue disorders (SOC), Grade ≥ 3 (60 mg, n = 6): 1 (16.7) n (%)
TEAE Stomatitis, All grades (60 mg, n = 6): 1 (16.7) n (%)
TEAE Stomatitis, Grade ≥ 3 (60 mg, n = 6): 0 n (%)
TEAE Subcutaneous abscess, All grades (60 mg, n = 6): 1 (16.7) n (%)
TEAE Subcutaneous abscess, Grade ≥ 3 (60 mg, n = 6): 0 n (%)
TEAE Tinnitus, All grades (60 mg, n = 6): 0 n (%)
TEAE Tinnitus, Grade ≥ 3 (60 mg, n = 6): 0 n (%)
TEAE Urticaria, All grades (60 mg, n = 6): 0 n (%)
TEAE Urticaria, Grade ≥ 3 (60 mg, n = 6): 0 n (%)
TEAE Vomiting, All grades (60 mg, n = 6): 2 (33.3) n (%)
TEAE Vomiting, Grade ≥ 3 (60 mg, n = 6): 0 n (%)
TEAE WBC count decreased, All grades (60 mg, n = 6): 2 (33.3) n (%)
TEAE WBC count decreased, Grade ≥ 3 (60 mg, n = 6): 0 n (%)
maximum tolerated dose (MTD) (45 and 60 mg/day): not reached
dose-limiting toxicities (DLTs) (45 and 60 mg/day, N = 9): No dose-limiting toxicities were observed; also recorded: No DLTs were reported; also recorded: no DLTs or fatal events were observed
recommended phase 2 dose (RP2D) (Japanese patients): 60 mg/day
Grade 3 irAEs (N = 9): 7 patients
Grade ≤ 3 irAEs (N = 9): All patients experienced Grade ≤ 3 irAEs
Grade ≥ 3 diarrhea (N = 9): 33.3%
Grade ≥ 3 neutrophil count decreased (N = 9): 55.6%
discontinued due to SAEs (N = 9): 3 patients
dosing interrupted due to irAEs (N = 9): 7 patients
dosing interrupted due to neutrophil count decreased (N = 9): 1 patients
incidence of TEAEs ≥ Grade 3 (N = 9): 77.8%
number of serious AEs (SAEs) (N = 9): 6
zandelisib discontinuation due to immune-related toxicities (N = 9): 4 patients
patients with serious AEs (SAEs) (N = 9, all Grade 3, treatment related): 44.4%
incidence of TEAEs in all patients (N = 9, all grades): 100%
TEAE ALT increased, All grades (Total, N = 9): 3 (33.3) n (%)
TEAE ALT increased, Grade ≥ 3 (Total, N = 9): 0 n (%)
TEAE AST increased, All grades (Total, N = 9): 5 (55.6) n (%)
TEAE AST increased, Grade ≥ 3 (Total, N = 9): 0 n (%)
TEAE Abdominal discomfort, All grades (Total, N = 9): 1 (11.1) n (%)
TEAE Abdominal discomfort, Grade ≥ 3 (Total, N = 9): 0 n (%)
TEAE Abdominal pain upper, All grades (Total, N = 9): 1 (11.1) n (%)
TEAE Abdominal pain upper, Grade ≥ 3 (Total, N = 9): 0 n (%)
TEAE Amylase increased, All grades (Total, N = 9): 1 (11.1) n (%)
TEAE Amylase increased, Grade ≥ 3 (Total, N = 9): 0 n (%)
TEAE Anemia, All grades (Total, N = 9): 1 (11.1) n (%)
TEAE Anemia, Grade ≥ 3 (Total, N = 9): 0 n (%)
TEAE Arthralgia, All grades (Total, N = 9): 2 (22.2) n (%)
TEAE Arthralgia, Grade ≥ 3 (Total, N = 9): 0 n (%)
TEAE Back pain, All grades (Total, N = 9): 1 (11.1) n (%)
TEAE Back pain, Grade ≥ 3 (Total, N = 9): 0 n (%)
TEAE Blepharitis, All grades (Total, N = 9): 1 (11.1) n (%)
TEAE Blepharitis, Grade ≥ 3 (Total, N = 9): 0 n (%)
TEAE Blood and lymphatic system disorders (SOC), All grades (Total, N = 9): 1 (11.1) n (%)
TEAE Blood and lymphatic system disorders (SOC), Grade ≥ 3 (Total, N = 9): 0 n (%)
TEAE Blood creatinine increased, All grades (Total, N = 9): 1 (11.1) n (%)
TEAE Blood creatinine increased, Grade ≥ 3 (Total, N = 9): 0 n (%)
TEAE Bradycardia, All grades (Total, N = 9): 1 (11.1) n (%)
TEAE Bradycardia, Grade ≥ 3 (Total, N = 9): 0 n (%)
TEAE CMV test positive, All grades (Total, N = 9): 3 (33.3) n (%)
TEAE CMV test positive, Grade ≥ 3 (Total, N = 9): 0 n (%)
TEAE Cardiac disorders (SOC), All grades (Total, N = 9): 1 (11.1) n (%)
TEAE Cardiac disorders (SOC), Grade ≥ 3 (Total, N = 9): 0 n (%)
TEAE Conjunctivitis, All grades (Total, N = 9): 2 (22.2) n (%)
TEAE Conjunctivitis, Grade ≥ 3 (Total, N = 9): 0 n (%)
TEAE Constipation, All grades (Total, N = 9): 4 (44.4) n (%)
TEAE Constipation, Grade ≥ 3 (Total, N = 9): 0 n (%)
TEAE Cough, All grades (Total, N = 9): 1 (11.1) n (%)
TEAE Cough, Grade ≥ 3 (Total, N = 9): 0 n (%)
TEAE Cytomegalovirus infection, All grades (Total, N = 9): 1 (11.1) n (%)
TEAE Cytomegalovirus infection, Grade ≥ 3 (Total, N = 9): 0 n (%)
TEAE Cytomegalovirus viremia, All grades (Total, N = 9): 1 (11.1) n (%)
